In US20200171051A1, “METHODS FOR TREATING RENAL INJURY BY […] UPREGULATING P21” (RENIBUS THERAPEUTICS, INC., priority 2018, published 2020):

Key:
[1] = in vivo; cited from earlier work
[2] = relative to cortisol = 1; cited from earlier work
renal cortical p21 [3] = test: Glycerol AKI model: renal cortical p21 mRNA (RT-PCR, factored by GAPDH) and p21 protein (ELISA); format: in vivo, male CD-1 mice
Description: (§1) The present inventors conducted studies to better understand the factors that drive renal p21 expression during AKI. All experiments were performed using male CD-1 mice (35-40 grams, Charles River Laboratories, Wilmington, Del.) maintained under routine vivarium conditions with free food and water access. The AKI models were approved by the institution's Animal Care and Utilization Committee). All surgical procedures were conducted under deep pentobarbital anesthesia (40-50 mg/Kg IP).
Mice were briefly anesthetized with isoflurane, and then subjected to intramuscular glycerol injection (administered in equally divided doses into each hind limb). The glycerol dose ware varied (6, 6.5, 7, 7.5, 8, 8.5, 9 ml/Kg; n˜2-3 per dose) in order to produce variable degrees of renal injury. At 4 hrs post glycerol injection, a tail vein tail vein blood sample (˜25 μl) was obtained, and at 18 hrs, the mice were deeply anesthetized with pentobarbital. The abdominal cavity was opened through a midline abdominal incision, a terminal vena cava blood sample was obtained, the kidneys were removed, iced, and renal cortical samples were cut and extracted for both protein and total RNA (RNeasy Mini+; Qiagen; Germantown, Md.). A terminal urine sample was collected from the urinary bladder. Plasma samples were assayed for blood urea nitrogen (BUN) and creatinine (Cr). Johnson A C, Zager R A. Plasma and urinary p21: potential biomarkers of AKI and renal aging. Am J Physiol 2018; Aug. 1. doi: 10.1152/ajprenal.00328.2018. [Epub ahead of print]. Renal cortical, plasma, and urinary p21 concentrations were determined with a ‘sandwich’ ELISA which employs two distinct monoclonal antibodies (capture; detection) directed against two different p21 epitopes, conferring p21 specificity; (#2120721; Abcam, Cambridge, Mass.). Renal cortical p21 mRNA levels were determined by RT-PCR, factored by GAPDH. Ten normal mice provided control plasma, urine, and tissue values for comparisons.
To assess renal cortical changes at an earlier time point than that noted above (18 hrs post glycerol injection), an additional 5 mice were subjected to glycerol injection (8.5 ml/Kg) and 4 hrs later, renal cortical protein/RNA samples were obtained for use in the above noted assays. The results were contrasted to those observed in 5 normal mice.
Pifithrin-α is a stable, water soluble, p53 inhibitor which blocks activation of p53 responsive genes. Dagher P C, Mai E M, Hato T, Lee S Y, Anderson M D Karozos S C Mang H E, Knipe N L, Plotkin Z, Sutton T A: The p53 inhibitor pifithrin can stimulate fibrosis in a rat model of ischemic acute kidney injury. Am J Physiol Renal Physiol 302: F284-F291, 2012; Komarov P G, Komarova E A, Kondratov R V, Christov-Tselkov K, Coon J S, Chernov M V et al. A chemical inhibitor of p53 that protects mice from the side effects of cancer therapy. Science 285: 1733-1737, 1999. As such, it has been used to differentiate p53-dependent vs. p53-independent pathways. To further explore the potential role of p53 on p21 gene activation, 3 mice were injected IP with 10 mg/Kg pifithrin-α (10% DMSO in saline; EMD Millipore #506154; Burlington, Mass.). Three additional mice received vehicle injection. Immediately thereafter the mice were injected with […] glycerol. Four hrs post glycerol injection, renal cortical tissues were analyzed for p21 and p53 mRNAs.
Inflammation can induce p21 gene activation via the inflammatory cascade (1, 2). Basile J R, Eichten A, Zacny V, Münger K. NF-kappaB-mediated induction of p21(Cip1/Waf1) by tumor necrosis factor alpha induces growth arrest and cytoprotection in normal human keratinocytes. Mol Cancer Res. 2003; 4: 262-270; Bellido T, O'Brien C A, Roberson P K, Manolagas S C: Transcriptional Activation of the p21WAF1,CIP1,SDI1 Gene by Interleukin-6 Type Cytokines. J Biol Chem 1998; 273:21137-21144. […]

renal cortical p21 [4] = test: Normal mice (no renal injury): renal cortical p21 protein and mRNA; format: in vivo, male CD-1 mice
Description: The present inventors conducted studies to better understand the factors that drive renal p21 expression during AKI. All experiments were performed using male CD-1 mice (35-40 grams, Charles River Laboratories, Wilmington, Del.) maintained under routine vivarium conditions with free food and water access. The AKI models were approved by the institution's Animal Care and Utilization Committee). All surgical procedures were conducted under deep pentobarbital anesthesia (40-50 mg/Kg IP). Mice were briefly anesthetized with isoflurane, and then subjected to intramuscular glycerol injection (administered in equally divided doses into each hind limb). […] At 4 hrs post glycerol injection, a tail vein tail vein blood sample (˜25 μl) was obtained, and at 18 hrs, the mice were deeply anesthetized with pentobarbital. The abdominal cavity was opened through a midline abdominal incision, a terminal vena cava blood sample was obtained, the kidneys were removed, iced, and renal cortical samples were cut and extracted for both protein and total RNA (RNeasy Mini+; Qiagen; Germantown, Md.). A terminal urine sample was collected from the urinary bladder. Plasma samples were assayed for blood urea nitrogen (BUN) and creatinine (Cr). Johnson A C, Zager R A. Plasma and urinary p21: potential biomarkers of AKI and renal aging. Am J Physiol 2018; […] [Epub ahead of print]. Renal cortical, plasma, and urinary p21 concentrations were determined with a ‘sandwich’ ELISA which employs two distinct monoclonal antibodies (capture; detection) directed against two different p21 epitopes, conferring p21 specificity; (#2120721; Abcam, Cambridge, Mass.). Renal cortical p21 mRNA levels were determined by RT-PCR, factored by GAPDH. Ten normal mice provided control plasma, urine, and tissue values for comparisons. To determine the impact of DXM on renal p21 expression in the absence of renal injury, 5 mice were injected with DXM as above, and 4 hrs later p21 protein/mRNA levels were measured and compared to normal values. Given an unexpected finding that corticosteroid injection increased, rather than suppressed, p21 expression, and given that endogenous cortisol levels were markedly elevated post-glycerol injection, we questioned whether glucocorticoid receptor (GCR) blockade would decrease p21 expression. […] Four hrs later, the kidneys were removed and renal cortices were analyzed for p21 mRNA and protein levels. Four mice, treated with mifepristone in the absence of glycerol injection, served to evaluate its effects in the absence of glycerol injection.

renal cortical p53 mRNA = test: Glycerol AKI model: renal cortical p53 mRNA; format: in vivo, male CD-1 mice; details: 4 hr post glycerol + pifithrin-α 10 mg/Kg IP; mean ± SEM; glycerol alone 0.75±0.02; NS
Description: as §1
Mice were briefly anesthetized with isoflurane, and then subjected to intramuscular glycerol injection (administered in equally divided doses into each hind limb). The glycerol dose ware varied (6, 6.5, 7, 7.5, 8, 8.5, 9 ml/Kg; n˜2-3 per dose) in order to produce variable degrees of renal injury. […] Renal cortical, plasma, and urinary p21 concentrations were determined with a ‘sandwich’ ELISA which employs two distinct monoclonal antibodies (capture; detection) directed against two different p21 epitopes, conferring p21 specificity; (#2120721; Abcam, Cambridge, Mass.). Renal cortical p21 mRNA levels were determined by RT-PCR, factored by GAPDH. […]
Pifithrin-α is a stable, water soluble, p53 inhibitor which blocks activation of p53 responsive genes. […] Four hrs post glycerol injection, renal cortical tissues were analyzed for p21 and p53 mRNAs. […]

[5] = normal mice, within 4 hrs of DXM injection (250 μg IP)
[6] = 4 hr post glycerol kidneys, DXM 250 μg IP 30 min before glycerol 8.5 ml/Kg
[7] = control mice, 4 hrs post MFP 30 mg/Kg, in words
[8] = glycerol treated mice, 4 hrs, MFP 30 mg/Kg, in words

C[C@]12CCC(=O)C=C1CC[C@@H]1[C@@H]2[C@@H](O)C[C@@]2(C)[C@H]1CC[C@]2(O)C(=O)CO [Cortisol]
Terminal half-life [1]: 8 h
Glucocorticoid potency [2]: 1
effect on 4 hr post glycerol p21 mRNA levels (renal cortical p21 [3]; cortisol 1 mg/Kg IP 30 min before glycerol 8.5 ml/Kg, in words): to the same degree as did DXM injection

C[C@]12CCC(=O)C=C1CC[C@@H]1[C@@H]2C(=O)C[C@@]2(C)[C@H]1CC[C@]2(O)C(=O)CO [Cortisone]
Glucocorticoid potency [2]: 0.8

C[C@@H]1C[C@H]2[C@@H]3CCC4=CC(=O)C=C[C@]4(C)[C@@]3(F)[C@@H](O)C[C@]2(C)[C@@]1(O)C(=O)CO [Dexamethasone]
increase in renal cortical p21 mRNA (renal cortical p21 [4]; [5]): 15 ×
increase in renal cortical p21 protein (renal cortical p21 [4]; [5]): 10 ×
increase in p21 mRNA (renal cortical p21 [3]; [6]): ~3 fold
increase in p21 protein (renal cortical p21 [3]; [6]): ~3 fold

C[C@H]1C[C@@H]2[C@H]([C@@H](O)C[C@@]3(C)[C@H]2CC[C@]3(O)C(=O)CO)[C@@]2(C)C=CC(=O)C=C12 [Methylprednisolone]
Terminal half-life [1]: 18 to 40 h

CC#C[C@]1(O)CC[C@H]2[C@@H]3CCC4=CC(=O)CCC4=C3[C@@H](c3ccc(N(C)C)cc3)C[C@@]21C [Mifepristone]
effect on p21 mRNA values (renal cortical p21 [4]; [7]): no significant decrease
effect on p21 protein values (renal cortical p21 [4]; [7]): no significant decrease
effect on p21 protein levels (renal cortical p21 [3]; [8]): normalized
effect on post glycerol p21 mRNA levels (renal cortical p21 [3]; [8]): modest reduction

C[C@]12C=CC(=O)C=C1CC[C@@H]1[C@@H]2[C@@H](O)C[C@@]2(C)[C@H]1CC[C@]2(O)C(=O)CO [Prednisolone]
Terminal half-life [1]: 16 to 36 h
Glucocorticoid potency [2]: 4

C[C@]12C=CC(=O)C=C1CC[C@@H]1[C@@H]2C(=O)C[C@@]2(C)[C@H]1CC[C@]2(O)C(=O)CO [Prednisone]
Terminal half-life [1]: 16 to 36 h

C[C@]12C=CC(=O)C=C1CC[C@H]1[C@@H]3C[C@@H](O)[C@](O)(C(=O)CO)[C@@]3(C)C[C@H](O)[C@@]12F [Triamcinolone]
Terminal half-life [1]: 12 to 36 h
Glucocorticoid potency [2]: 5

Cc1ccc(C(=O)Cn2c3c(sc2=N)CCCC3)cc1 [pifithrin-α, Pifithrin-α]
renal cortical p53 mRNA (renal cortical p53 mRNA): 0.7±0.03
renal cortical p21 mRNA (renal cortical p21 [3]; 4 hr post glycerol + pifithrin-α 10 mg/Kg IP, mean ± SEM, controls 0.34±0.1, glycerol alone 1.43±0.11): 1.71±0.08
